The values below come from patent publication US7649017B2, “Compositions intended for the treatment of peripheral neuropathies, preparation thereof and uses of same” (Universite de la Mediterranee, priority 2002, dated 2010).

Experiment [1] deals with C22 males (murine CMT model). The experiment is described as follows: Survival of treated C22 males under continued treatment. In kind it is in vivo, mice. Conditions: continued vitamin C treatment; untreated males die before 10 months of age. An excerpt:
The results, expressed in seconds, confirm that males were more severely affected (males in this line even have early mortality, since all males die before 10 months of age).
Performance continued to improve, even after taking into account that the animals had aged.

For the next experiment, the system named is C22 mice. As to the kind of experiment: Histologic analysis of sciatic nerve, percentage of myelinated fibers. The class given is in vivo. Conditions: C22 mice treated for three months. The protocol:
The sciatic nerve was harvested and the percentage of myelinated fibers was determined by histologic analysis and is given in the figure on the ordinate, together with the results of a non-transgenic control (more than 95% of peripheral nerve fibers are myelinated in adults).
To obtain data on the mechanism of this phenotypic correction, the histologic features of the nerves of treated animals were studied. For this, some of the treated animals were sacrificed and a histologic analysis was performed. The percentage of myelinated nerve fibers increased with treatment (FIG. 3). This percentage was 95% for non-transgenic animals, 20-30% for untreated C22 mice and 70% for treated animals. The treatment therefore reactivated myelination, which was inhibited by overexpression of PMP22.

The test system of experiment [2] is transgenic C22 animals (murine CMT model, human YAC containing the PMP22 gene). The experiment is described as follows: Rotor-Rod test, first open trial in transgenic C22 animals. The class given is in vivo, mice. Conditions: treated with vitamin C. The procedure:
To better understand the pathophysiology of this disease and to propose therapeutic solutions, a murine disease model was constructed in 1996 by transgenesis of a human YAC containing the PMP22 gene (Huxley et al., Human Molecular Genetics, 1996, Vol. 5, No. 5, 563-569). […] The action of vitamin C was tested in this model. A first “open” trial was carried out, without inclusion criteria, by simply separating males and females so as to rapidly determine whether a phenotypic correction effect could be seen. The Rotor-Rod test, classically used in pharmacology, was chosen as the criterion of muscle strength. […] The results, expressed in seconds, confirm that males were more severely affected (males in this line even have early mortality, since all males die before 10 months of age).

Experiment [3] deals with C22 males (murine CMT model). The experiment is described as follows: Rotor-Rod test, double-blind study vitamin C versus placebo in C22 males. In kind it is in vivo, mice. Conditions: 1.12 mg once a week by gavage. The protocol: Rotor-Rod test performance was evaluated every month (at 3 months, 4 months and 5 months). The standard deviation is indicated by the darkened section at the top of each column. […] Only males (from two litters) were used, since the degree of severity is sex-specific. […] The fact that only males were included is very important, because it is known that severity varies widely in human patients according to sex, a variability also seen in the animal models used, in which there appears to be a major modifier gene having an impact on myelination. “Genetic background” thus seems to play a significant role in the severity of the phenotype. It was therefore justified to work with individuals from a same litter. […] The animals were then evaluated in the Rotor-Rod test. The study lasted for three months (age of animals: two to five months). The results are illustrated in FIG. 1.

Experiment [4] concerns C22 animals (murine CMT model). The experiment is described as follows: Bar crossing (posture) test and grip test, third study. In kind it is in vivo, mice. The procedure: FIG. 2: A second series of preclinical tests with the same design as the first series (described in FIG. 1) was carried out. Animals were tested after one month and two months of treatment using the bar crossing test (the longer the animal takes to cross the bar or the more it slips off, the worse the locomotor performance). Animals were also tested in the grip test which measures the traction strength that must be applied for the animal to release the bar (the higher this value the better the performance). To confirm these findings and further investigate the mechanism of phenotypic correction, a third study was carried out. Two tests were used: a posture test (crossing a bar that gets progressively narrower) and a test of muscle strength, the “grip test”. FIG. 2 illustrates the results after two months of treatment. […] This test is a good indicator of muscle strength.

SMILES strings stand for the structures.

Take `O=C1O[C@H]([C@@H](O)CO)C(O)=C1O` [vitamin C, ascorbic acid]: in experiment [1], the “Age at which treated males were still alive” value is given as “still alive at age 24 months”. For the same molecule, in the experiment on C22 mice, the “Percentage of myelinated nerve fibers” value stood at 70%. Moreover, the “Seconds on the bar (Rotor-Rod test), treated animals” value came out at 45.7 ± 10 s in experiment [2] (C22 females) and 46 ± 14 s in experiment [2] (C22 males). Also, the “Rotor-Rod test performance, first month of treatment” value in experiment [3] (first month) is “not very effective”. In addition, in experiment [3] (from the second month), the “Time on the bar (Rotor-Rod test), second month of treatment” value was about 50 s. Besides, the “Rotor-Rod test performance, third month of treatment” value in experiment [3] (third month) was “further improved”. The Bar crossing performance result in experiment [4] (after one and two months of treatment) was “deteriorated at the first month, then improved during the second”. Also, in experiment [4] (after two months of treatment), the “Grip test (muscle strength)” value was “improvement was also seen starting from two months of treatment”.
